Assay results reported in BigSolDB 2.1.

O=c1c(-c2ccc(O)cc2)coc2cc(O[C@@H]3O[C@H](CO)[C@@H](O)[C@H](O)[C@H]3O)cc(O)c12
solubility (mole fraction)
Settings	283.2 K	293.2 K	303.2 K	313.2 K	323.2 K
in THF	8.67e-05	0.000101	0.000123	0.000149	0.000186
in acetone	0.000354	0.000361	0.000369	0.000382	0.000388
in acetonitrile	1.15e-06	1.61e-06	2.15e-06	2.62e-06	3.12e-06
in chloroform	2.86e-07	3.37e-07	4.14e-07	5.02e-07	6.54e-07
in cyclohexane	2.66e-07	4.59e-07	6.56e-07	9.11e-07	1.25e-06
in ethanol	2.63e-05	2.85e-05	3.28e-05	3.72e-05	4.38e-05
in ethyl acetate	1.17e-06	1.52e-06	1.99e-06	2.55e-06	3.25e-06
in isopropanol	7.95e-06	1.05e-05	1.34e-05	1.71e-05	2.2e-05
in methanol	5e-05	5.54e-05	5.91e-05	6.44e-05	7.04e-05
in n-butanol	4.78e-06	8.48e-06	1.25e-05	1.56e-05	1.91e-05
in n-hexane	3.64e-07	4.87e-07	6.47e-07	8.58e-07	1.14e-06
